# Results from US20250288645A1, “USE OF GsMTx4 AND GsMTx4 CONJUGATES TO IMPROVE RECOVERY FROM JOINT INJURY” (priority 2023, published 2025).
# Entries after “also recorded” stand apart in the source; their conditions may differ. No end group written: not given here.
# How the values were obtained:
# Piezo2 = test: Bilateral ACL-injury mouse model: Piezo2 expression in CGRP+ pain nerves; type: in vivo; conditions: ACL-I mice, GsMTx4 post-injury, versus saline-treated ACL-I mice
# Description: Some of the studies reported below involved a murine model of animals which were subjected to trauma by injuring an ACL (as an exemplar of injury to any of the four knee ligaments). Without wishing to be bound by theory, it is believed that injury to the ACL changes the mechanical loading on the joint, promoting imbalanced metabolism in articular cartilage, and promoting the development of post-traumatic OA, or “PTOA.” Animals were divided into four cohorts: the first group, the controls, were not subjected to trauma, the second group underwent bilateral ACL injury, but no further treatment, the third group underwent bilateral ACL injury, and was then administered saline solution at days 3, 10 and 17 post-injury, and the fourth group underwent bilateral ACL injury, and was then administered GsMTx4 peptide at days 3, 10 and 17 post-injury. The animals were evaluated by gait analysis, a cell vulnerability assay, and a histological evaluation/immunofluorescence assay. In one aspect, the assays compared the expression of Piezo1 and Piezo2 in chondrocytes from injured joints, from uninjured controls, and from injured joints injured and then treated with GsMTx4 and from joints that were injured and then treated only with saline solution. The study also looked at calcitonin gene-related peptide (“CGRP”)-containing (“CGRP^+”) nerve endings. […]
# Piezo1 = test: Massive rotator cuff tear mouse model: Piezo1 immunohistochemistry; type: in vivo
# Experimental: A massive rotator cuff tear (RCT) model was performed by surgical ligation of the supraspinatus and infraspinatus tendons of the right shoulder of 14-week-old C57Bl/6 male and female mice through a deltoid splitting approach. Mice were anesthetized with 2% isoflurane gas mixed with oxygen. A single dose of buprenorphine SR (0.5 mg/kg) was injected subcutaneously at the nape. The right shoulder was prepped using a chemical hair removal agent, followed by betadine solution for 2 minutes and a rinse with 70% ethanol. The remaining steps were performed under sterile technique. A #11 scalpel blade was used to sharply incise the skin and subcutaneous tissues in a longitudinal incision over the palpable border of the lateral shoulder. The deltoid fascia and muscle were sharply incised in line with the skin incision with care not to dissect distally along the humerus to protect the axillary nerve. […] Animals were monitored daily for 3 days post-operatively, and no adverse events were noted. […]
# For Piezo1 immunohistochemistry, deparaffinized and rehydrated slides were incubated in citrate buffer (10 mM sodium citrate, 0.05% Tween-20, pH 6.0) for […] at 75° C. […] Chondrocyte Piezo1 protein expression was quantified by average threshold intensity of immunofluorescence by ImageJ analysis through raw intensity averaging. […]
# chondrocytes = test: Mechano-vulnerability (impact loading) assay on cartilage of treated ACL-injured mice; type: in vivo, mouse; conditions: ACL-I mice, 3 weeks post-ACL-I, versus saline-treated ACL-I mice
# Description: OA was induced by a bilateral anterior cruciate ligament-injury (ACL-I) in 8-week-old C57BL/6 mice. Piezo1-labeling intensity in articular chondrocytes and nerves in subchondral bone, the OA severity (OARSI score), the mechano-vulnerability of chondrocytes, and gait parameters was compared among four experimental groups-Control (uninjured), ACL-injured, ACL-injured with saline administration, and ACL-injured with GsMT4 treatment—at 3-weeks post-ACL-I.
# FIG. 1E is a diagram showing impact loading applied to cartilage over a portion of a mouse bone as part of an assay for studying the resulting area of chondrocyte death, sometimes referred to a “mechano-death” or “mechano-vulnerability” assay. See, Kotelsky, et al., Osteoarthritis and Cartilage Open, 4 (1): 100227 (2022); doi.org/10.1016/j.ocarto. 2021.100227.
# FIG. 2C presents two sets of two photos from animals that have undergone bilateral ACL injury. The animal in the photos in the top row was injected after the injury with saline solution (“ACLL+saline”), while the animal in the bottom row was injected at the same time points post-injury with GsMTx4 (“ACLI+GsMTx4”). The left photos show the amount of dead cells (in red, in the color original, compared to living cells, which have taken up a green label) and after application of a 1 mJ force. FIG. 2D presents a graph showing the results of the studies.
substance,measurement,setting,value
GsMTx4 (GCLEFWWKCNPNDDKCCRPKLKCSKLFKLCNFSF-NH2; ends and bridges not checked; listed as Grammostola spatulata),Piezo2 expression in CGRP^+ pain nerves,Piezo2,decreased Piezo2 expression in CGRP^+ pain nerves
same,humeral head chondrocyte Piezo1 protein expression versus contralateral control joint,"Piezo1; RC ligation, subcutaneous twice weekly, 14 weeks post-operatively, p<0.05",significantly lower humeral head chondrocyte Piezo1 protein expression
same,Piezo1 expression in cells from RCT shoulders versus animals not treated with GsMTx4,"Piezo1; RCT, treated post-injury with GsMTx4",reduced expressed of Piezo1
same,area of chondrocyte death by mechanical impact,chondrocytes,decreased area of chondrocyte death by impact; also recorded: decreased impact-induced mechanical-susceptibility
